ChEMBL document CHEMBL3734672, “Synthesis, cyclooxygenase inhibition, anti-inflammatory evaluation and ulcerogenic liability of novel triarylpyrazoline derivatives as selective COX-2 inhibitors” (Bioorg Med Chem Lett, 2015)

Columns and labels:
[1] = target: T1, Prostaglandin G/H synthase 2 (Homo sapiens, UniProt P35354); assay: Inhibition of human recombinant COX-2 preincubated for 2 mins prior to arachidonic acid addition by enzyme immuno assay
T1 sequence (P35354 whole entry): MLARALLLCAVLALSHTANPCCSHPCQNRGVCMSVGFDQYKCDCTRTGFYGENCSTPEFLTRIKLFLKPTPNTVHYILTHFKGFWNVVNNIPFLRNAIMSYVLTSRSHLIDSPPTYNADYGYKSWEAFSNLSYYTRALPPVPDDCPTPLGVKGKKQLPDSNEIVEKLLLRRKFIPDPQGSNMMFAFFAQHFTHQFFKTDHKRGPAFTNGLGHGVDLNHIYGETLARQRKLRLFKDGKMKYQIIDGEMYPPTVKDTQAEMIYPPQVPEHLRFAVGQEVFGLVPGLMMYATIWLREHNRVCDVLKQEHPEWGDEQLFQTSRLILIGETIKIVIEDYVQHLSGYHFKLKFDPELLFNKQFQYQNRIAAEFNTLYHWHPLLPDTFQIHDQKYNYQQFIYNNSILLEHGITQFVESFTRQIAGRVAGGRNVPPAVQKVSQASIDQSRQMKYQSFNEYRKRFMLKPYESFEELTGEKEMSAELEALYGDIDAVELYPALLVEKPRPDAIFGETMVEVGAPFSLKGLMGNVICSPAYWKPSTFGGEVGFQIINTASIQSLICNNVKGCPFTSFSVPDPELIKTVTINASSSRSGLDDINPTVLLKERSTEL

[2] = tested on: Rattus norvegicus; assay: Ulcerogenic activity in rat assessed as ulcer index at 100 mg/kg; assay type: toxicity, organism-based; settings: in vivo
[3] = Selectivity index, ratio of IC50 for ovine COX-1 to IC50 for human recombinant COX-2
[4] = target: T2, Prostaglandin G/H synthase 1 (Ovis aries, UniProt P05979); assay: Inhibition of ovine COX-1 preincubated for 2 mins prior to arachidonic acid addition by enzyme immuno assay
T2 sequence (P05979 whole entry): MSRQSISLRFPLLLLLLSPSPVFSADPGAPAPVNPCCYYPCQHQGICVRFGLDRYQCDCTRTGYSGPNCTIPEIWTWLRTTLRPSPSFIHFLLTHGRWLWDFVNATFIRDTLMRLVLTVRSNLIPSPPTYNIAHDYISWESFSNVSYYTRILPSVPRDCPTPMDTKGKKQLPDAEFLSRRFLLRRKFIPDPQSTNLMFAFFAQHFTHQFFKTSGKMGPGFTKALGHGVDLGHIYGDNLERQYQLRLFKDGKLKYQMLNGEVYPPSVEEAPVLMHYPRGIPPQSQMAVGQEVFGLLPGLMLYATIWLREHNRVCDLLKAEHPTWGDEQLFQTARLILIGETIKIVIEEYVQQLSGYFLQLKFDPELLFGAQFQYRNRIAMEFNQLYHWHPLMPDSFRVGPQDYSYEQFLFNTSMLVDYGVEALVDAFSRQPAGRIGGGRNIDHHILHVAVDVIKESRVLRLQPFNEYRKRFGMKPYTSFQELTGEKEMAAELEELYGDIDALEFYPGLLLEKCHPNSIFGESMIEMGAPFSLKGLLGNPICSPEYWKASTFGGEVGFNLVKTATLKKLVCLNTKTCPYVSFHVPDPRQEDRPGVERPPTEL

[5] = tested on: Rattus norvegicus; assay: Gastrointestinal toxicity in rat assessed as ulcer incidence at 100 mg/kg; assay type: organism-based; settings: in vivo
[6] = tested on: Rattus norvegicus; assay: Antiinflammatory activity in rat assessed as inhibition of carrageenan-induced paw edema at 50 mg/kg, po measured after 3hrs post carrageenan challenge; assay type: functional

Row | Structure (SMILES) | IC50 [1] [µM] | Ratio IC50 [3] | IC50 [4] [µM] | UI [2] | Activity [5] [%] | inhibition in vivo at 50 mg/kg [6] [%]
1 | COc1cc(C2CC(c3ccc(S(C)(=O)=O)cc3)=NN2c2ccc(C(=O)O)cc2)cc(OC)c1OC (stereo not given) | 5.94 | 2.51 | 13.4 | 6.85 | 5.5 | 66.2
2 | CS(=O)(=O)c1ccc(C2=NN(c3ccc(C(=O)O)cc3)C(c3ccccc3)C2)cc1 (stereo not given) | 0.98 | 5 | 4.9 |  |  | 56.4
3 | COc1ccc(C2CC(c3ccc(S(C)(=O)=O)cc3)=NN2c2ccc(C(=O)O)cc2)cc1OC (stereo not given) | 3.74 | 2.61 | 9.7 |  |  | 6.11
4 | CS(=O)(=O)c1ccc(C2=NN(c3ccc(C(=O)O)cc3)C(c3cccs3)C2)cc1 (stereo not given) | 1.16 | 4.11 | 4.7 |  |  | 35.6
5 | COc1ccc(C2CC(c3ccc(S(C)(=O)=O)cc3)=NN2c2ccc(S(N)(=O)=O)cc2)cc1 (stereo not given) | 2.11 | 3.1 | 6.5 |  |  | 42.4
6 | COc1ccc(C2CC(c3ccc(S(C)(=O)=O)cc3)=NN2c2ccc(C(=O)O)cc2)cc1 (stereo not given) | 2.17 | 3.11 | 6.6 |  |  | 55.4
7 | COc1cccc(C2CC(c3ccc(S(C)(=O)=O)cc3)=NN2c2ccc(S(N)(=O)=O)cc2)c1 (stereo not given) | 1.76 | 4.11 | 7.1 |  |  | 38.3
8 | COc1ccc(C2CC(c3ccc(S(C)(=O)=O)cc3)=NN2c2ccc(S(N)(=O)=O)cc2)cc1OC (stereo not given) | 1.98 | 4.41 | 8.7 |  |  | 45.5
9 | Cc1ccc(-c2cc(C(F)(F)F)nn2-c2ccc(S(N)(=O)=O)cc2)cc1 [CELECOXIB] |  |  |  | 4.85 | 4.2 | 65.3
10 | COc1ccc2c(c1)c(CC(=O)O)c(C)n2C(=O)c1ccc(Cl)cc1 [INDOMETHACIN] |  |  |  | 12.3 | 8.3 | 
11 | COc1cccc(C2CC(c3ccc(S(C)(=O)=O)cc3)=NN2c2ccc(C(=O)O)cc2)c1 (stereo not given) | 4.71 | 2.21 | 10.1 |  |  | 31.3

The remaining compounds from weak to strong by IC50 [1], led by results:

Row | IC50 [1] [µM] | Ratio IC50 [3] | IC50 [4] [µM] | Structure (SMILES) | UI [2] | Activity [5] [%] | inhibition in vivo at 50 mg/kg [6] [%]
12 | 4.67 | 2.63 | 12.3 | COc1cc(C2CC(c3ccc(S(C)(=O)=O)cc3)=NN2c2ccc(S(N)(=O)=O)cc2)cc(OC)c1OC (stereo not given) | 5.92 | 5 | 73.7
13 | 3.98 | 2.91 | 11.4 | CS(=O)(=O)c1ccc(C2=NN(c3ccc(C(=O)O)cc3)C(c3ccc(Cl)cc3)C2)cc1 (stereo not given) |  |  | 50.4
14 | 3.41 | 2.91 | 9.7 | CS(=O)(=O)c1ccc(C2=NN(c3ccc(S(N)(=O)=O)cc3)C(c3ccc(F)cc3)C2)cc1 (stereo not given) | 7.7 | 6 | 65.7
15 | 2.84 | 3.42 | 9.7 | CS(=O)(=O)c1ccc(C2=NN(c3ccc(C(=O)O)cc3)C(c3ccc(F)cc3)C2)cc1 (stereo not given) |  |  | 42.3
16 | 2.67 | 3.11 | 8.3 | CS(=O)(=O)c1ccc(C2=NN(c3ccc(S(N)(=O)=O)cc3)C(c3ccc(Cl)cc3)C2)cc1 (stereo not given) |  |  | 42.4
17 | 1.75 | 3.71 | 6.4 | CS(=O)(=O)c1ccc(C2=NN(c3ccc(S(N)(=O)=O)cc3)C(c3cccs3)C2)cc1 (stereo not given) |  |  | 36.4
18 | 1.62 | 3.33 | 5.4 | CS(=O)(=O)c1ccc(C2=NN(c3ccc(S(N)(=O)=O)cc3)C(c3ccccc3)C2)cc1 (stereo not given) |  |  | 54.3
